In ChEMBL document CHEMBL1144604, “Synthesis and biological evaluation of phosphonate derivatives as autotaxin (ATX) inhibitors” (Bioorg Med Chem Lett, 2007):

Key:
[1] = biological target: Autotaxin (Homo sapiens) (UniProt Q13822); experiment: Inhibition of human recombinant ATX at 100 uM after 16 hrs; values are per cent of control
[2] = biological target: Autotaxin (Homo sapiens) (UniProt Q13822); experiment: Inhibition of human recombinant ATX at 10 uM after 16 hrs; values are per cent of control
[3] = biological target: Autotaxin (Homo sapiens) (UniProt Q13822); experiment: Inhibition of human recombinant ATX at 1 uM after 16 hrs; values are per cent of control

residual activity [1]	residual activity [2]	residual activity [3]	SMILES
36%	56%	77%	CCCCCCCCCCCCCCCC(=O)N[C@@H](Cc1ccc(OC)cc1)C(O)CP(=O)(O)O (single isomer, unassigned; diastereomer a)
77%	97%	110%	CCCCCCCCCCCCCCCC(=O)N[C@@H](Cc1ccc(OCCC)cc1)C(O)CP(=O)(O)O (single isomer, unassigned; diastereomer a)
67%	83%	98%	CCCCCCCCCCCCCCCC(=O)N[C@@H](Cc1ccc(OCCCCC)cc1)C(O)CP(=O)(O)O (single isomer, unassigned; diastereomer a)
57%	78%	100%	CCCCCCCCCCCCCCCC(=O)N[C@H](Cc1ccc(OC)cc1)C(O)CP(=O)(O)O (single isomer, unassigned; diastereomer a)
72%	104%	103%	CCCCCCCCCCCCCCCC(=O)N[C@H](Cc1ccc(OCCC(C)C)cc1)C(O)CP(=O)(O)O (single isomer, unassigned; diastereomer a)
80%	85%	81%	CCCCCCCCCCCCCCCC(=O)N[C@H](Cc1ccc(OCCCCC)cc1)C(O)CP(=O)(O)O (single isomer, unassigned; diastereomer a)
83%	100%	100%	CCCCCCCCCCCCCCCC(=O)N[C@@H](Cc1ccc(OCCC)cc1)C(O)CP(=O)(O)O (single isomer, unassigned; diastereomer b)
70%	90%	94%	CCCCCCCCCCCCCCCC(=O)N[C@@H](Cc1ccc(OCCCCC)cc1)C(O)CP(=O)(O)O (single isomer, unassigned; diastereomer b)
78%	83%	76%	CCCCCCCCCCCCCCCC(=O)N[C@@H](Cc1ccc(OCc2ccccc2)cc1)C(O)CP(=O)(O)O (single isomer, unassigned; diastereomer b)
90%	108%	108%	CCCCCCCCCCCCCCCC(=O)N[C@H](Cc1ccc(OCCC)cc1)C(O)CP(=O)(O)O (single isomer, unassigned; diastereomer b)
70%	82%	86%	CCCCCCCCCCCCCCCC(=O)N[C@H](Cc1ccc(OCCCCC)cc1)C(O)CP(=O)(O)O (single isomer, unassigned; diastereomer b)
83%	81%	80%	CCCCCCCCCCCCCCCC(=O)N[C@H](Cc1ccc(OCc2ccccc2)cc1)C(O)CP(=O)(O)O (single isomer, unassigned; diastereomer b)
69%	78%	92%	CCCCCCCCCCCCCCCC(=O)N[C@H](Cc1ccc(OCc2ccccn2)cc1)C(O)CP(=O)(O)O (single isomer, unassigned; diastereomer b)
72%	79%	80%	CCCCCCCCCCCCCCCC(=O)N[C@H](Cc1ccc(OCCC)cc1)C(O)CP(=O)(O)O (stereo in doubt)
60%	76%	103%	CCCCCCCCCCCCCCCC(=O)N[C@H](Cc1ccc(OCc2ccccn2)cc1)C(O)CP(=O)(O)O (stereo in doubt; f9)
82%	84%	95%	CCCCCCCCCCCCCCCC(=O)N[C@H](Cc1ccc(OC)cc1)C(O)CP(=O)(O)O (stereo in doubt; f20)
69%	80%	84%	CCCCCCCCCCCCCCCC(=O)N[C@@H](Cc1ccc(OC)cc1)C(O)CP(=O)(O)O (stereo in doubt; f22)
82%	104%	104%	CCCCCCCCCCCCCCCC(=O)N[C@@H](Cc1ccc(OCCC(C)C)cc1)C(O)CP(=O)(O)O (stereo in doubt; f33)
91%	101%	106%	CCCCCCCCCCCCCCCC(=O)N[C@@H](Cc1ccc(OCCC(C)C)cc1)C(O)CP(=O)(O)O (stereo in doubt; f34)

Further lines, the compound ahead of its results:

SMILES	residual activity [1]	residual activity [2]	residual activity [3]
CCCCCCCCCCCCCCCC(=O)N[C@@H](Cc1ccc(OCc2cc(OCC(F)(F)F)ccn2)cc1)C(=O)CP(=O)(O)O	44%	68%	79%
CCCCCCCCCCCCCCCC(=O)N[C@H](Cc1ccc(OCc2cc(OCC(F)(F)F)ccn2)cc1)C(=O)CP(=O)(O)O	57%	70%	85%
CCCCCCCCCCCCCCCC(=O)N[C@H](Cc1ccc(OCC2CCCCC2)cc1)C(O)CP(=O)(O)O (single isomer, unassigned)	67%	80%	84%
CCCCCCCCCCCCCCCC(=O)N[C@@H](Cc1ccc(OCc2ccccc2)cc1)C(O)CP(=O)(O)O (single isomer, unassigned; diastereomer a)	68%	77%	97%
CCCCCCCCCCCCCCCC(=O)N[C@@H](Cc1ccc(OCc2ccccn2)cc1)C(O)CP(=O)(O)O (single isomer, unassigned; diastereomer a)	52%	81%	104%
CCCCCCCCCCCCCCCC(=O)N[C@H](Cc1ccc(OCc2cc(OCC(F)(F)F)ccn2)cc1)C(O)CP(=O)(O)O (single isomer, unassigned; diastereomer a)	55%	84%	92%
CCCCCCCCCCCCCCCC(=O)N[C@H](Cc1ccc(OCc2ccccc2)cc1)C(O)CP(=O)(O)O (single isomer, unassigned; diastereomer a)	83%	82%	83%
CCCCCCCCCCCCCCCC(=O)N[C@H](Cc1ccc(OCc2ncc(C)c(OC)c2C)cc1)C(O)CP(=O)(O)O (single isomer, unassigned; diastereomer a)	63%	95%	108%
CCCCCCCCCCCCCCCCCCCC(=O)N[C@@H](Cc1ccc(OCc2ncc(C)c(OC)c2C)cc1)C(O)CP(=O)(O)O (single isomer, unassigned; diastereomer a)	10%	45%	64%
CCCCCCCCCCCCCCCC(=O)N[C@@H](Cc1ccc(OCC2CCCCC2)cc1)C(O)CP(=O)(O)O (single isomer, unassigned; diastereomer b)	80%	80%	80%
CCCCCCCCCCCCCCCC(=O)N[C@@H](Cc1ccc(OCc2cc(OCC(F)(F)F)ccn2)cc1)C(O)CP(=O)(O)O (single isomer, unassigned; diastereomer b)	56%	83%	103%
CCCCCCCCCCCCCCCC(=O)N[C@H](Cc1ccc(OCc2ncc(C)c(OC)c2C)cc1)C(O)CP(=O)(O)O (single isomer, unassigned; diastereomer b)	47%	64%	69%
CCCCCCCCCCCCCCCC(=O)N[C@@H](Cc1ccc(OCc2cc(OCC(F)(F)F)ccn2)cc1)C(O)CP(=O)(O)O (stereo in doubt; f3)	32%	80%	92%
CCCCCCCCCCCCCCCC(=O)N[C@@H](Cc1ccc(OCc2ncc(C)c(OC)c2C)cc1)C(O)CP(=O)(O)O (stereo in doubt; f17)	6%	13%	27%
CCCCCCCCCCCCCCCC(=O)N[C@@H](Cc1ccc(OCc2ncc(C)c(OC)c2C)cc1)C(O)CP(=O)(O)O (stereo in doubt; f18)	8%	21%	63%
CCCCCCCCCCCCCCCCCC(=O)N[C@@H](Cc1ccc(OCc2ncc(C)c(OC)c2C)cc1)C(O)CP(=O)(O)O (stereo in doubt; f39)	81%	91%	101%
CCCCCCCC/C=C/CCCCCCCC(=O)N[C@@H](Cc1ccc(OCc2ncc(C)c(OC)c2C)cc1)C(O)CP(=O)(O)O (stereo in doubt; f42)	58%	68%	77%
